Experimental data from patent US20090104145A1, “Mixtures of Anthranilamide Invertebrate Pest Control Agents” (priority 2004, published 2009).
Where two headings read alike, the source gives them in different places.

Experiments:
Experiment in all cases: whole plant or invertebrate
Assay type in all cases: in vivo
[1] = tested on: silverleaf whitefly (Bemisia argentifolii Bellows and Perring); conditions: Bemisia argentifolii, in Gossypium hirsutum, read-out: % Mortality (observed)
Experimental: (§1) The pest control protection afforded by the mixtures or compositions is not limited, however, to these species. The analysis of synergism or antagonism between the mixtures or compositions was determined using Colby's equation. The average % mortality data for the test compounds alone were inserted into the Colby's equation. If the observed average % mortality was higher than “p”, the expected % mortality, the mixture or composition had synergistic effects. If the observed average % mortality was equal to or lower than the expected mortality, the mixture or composition either had no synergistic effect or an antagonistic effect. In these tests, Compound 1 is the compound of Formula 1.
For evaluating control of silverleaf whitefly (Bemisia argentifolii Bellows and Perring) through contact and/or systemic means, each test unit consisted of a small open container with a 12- to 14-day-old cotton plant inside. This was pre-infested by placing test units into cages infested with adult whiteflies so that oviposition on the cotton leaves could occur. The adults were removed from the plants with an air-blast nozzle, and the test units were capped. The test units were then stored 2 to 3 days before spraying.
(§2) Test compounds were formulated using a solution containing 10% acetone, 90% water and 300 ppm X-77® Spreader Lo-Foam Formula non-ionic surfactant containing alkylarylpolyoxyethylene, free fatty acids, glycols and isopropanol (Loveland Industries, Inc.) to provide the desired concentration in ppm. Formulated test solutions were then applied in 1 mL volumes through a SUJ2 atomizer nozzle with ⅛ JJ custom body (Spraying Systems Co.) positioned 1.27 cm (0.5 inches) above the top of each test unit.
The results for all experimental compositions in this test were replicated three times. After spraying of the formulated test composition, each test unit was allowed to dry for 1 hour and the cap removed. The test units were held for 13 days in a growth chamber at 28° C. and 50-70% relative humidity.

[2] = tested on: western flower thrip (Frankliniella occidentalis Pergande); conditions: Frankliniella occidentalis
Experimental: as §1, §2
For evaluating control of the western flower thrip (Frankliniella occidentalis Pergande) through contact and/or systemic means, each test unit consisted of a small open container with a 5- to 7-day-old bean (var. Soleil) plant inside.
Test solutions were formulated and sprayed with 3 replications as described for Test A. After spraying, the test units were allowed to dry for 1 hour, 22 to 27 adult thrips were added to each unit and then a black, screened cap was placed on top. The test units were held for 7 days at 25° C. and 45-55% relative humidity.

[3] = tested on: potato leafhopper (Empoasca fabae Harris); conditions: Empoasca fabae, Imidacloprid 0 ppm, read-out: % Mortality (observed)
Experimental: as §1, §2
For evaluating control of potato leafhopper (Empoasca fabae Harris) through contact and/or systemic means, each test unit consisted of a small open container with a 5- to 6-day-old Longio bean plant (primary leaves emerged) inside. White sand was added to the top of the soil, and one of the primary leaves was excised prior to application. Test compounds were formulated and sprayed with 3 replications as described for Test A. After spraying, the test units were allowed to dry for 1 hour before they were infested with 5 potato leafhoppers (18- to 21-day-old adults). A black, screened cap was placed on the top of each container. The test units were held for 6 days in a growth chamber at 19-21° C. and 50-70% relative humidity.

[4] = tested on: cotton melon aphid (Aphis gossypii Glover); conditions: Aphis gossypii
Experimental: as §1, §2
(§3) For evaluating control of cotton melon aphid (Aphis gossypii Glover) through contact and/or systemic means, each test unit consisted of a small open container with a 6- to 7-day-old cotton plant inside. This was pre-infested by placing on a leaf of the test plant 30 to 40 aphids on a piece of leaf excised from a culture plant (cut-leaf method). The larvae moved onto the test plant as the leaf piece desiccated. After pre-infestation, the soil of the test unit was covered with a layer of sand.
(§4) Test compounds were formulated and sprayed as described for Test A. The applications were replicated three times. After spraying of the formulated test compounds, each test unit was allowed to dry for 1 hour and then a black, screened cap was placed on top. The test units were held for 6 days in a growth chamber at 19-21° C. and 50-70% relative humidity.

[5] = tested on: diamondback moth (Plutella xylostella)
Experimental: as §1
For evaluating control of diamondback moth (Plutella xylostella), cabbage (var. Stonehead) plants were grown in Metromix potting soil in 10-cm pots in aluminum trays to test size (28 days, 3-4 full leaves) the plants were sprayed to the point of runoff using the turntable sprayer as described in Test I. Test compounds were formulated and sprayed on test plants as described for Test I. After drying for 2 hours, the treated leaves were excised and infested with one cabbage looper per cell and covered. The test units were placed on trays and put in a growth chamber at 25° C. and 60% relative humidity for 4 days.

[6] = tested on: green peach aphid (Myzus persicae Sulzer); conditions: Myzus persicae, in Raphanus sativus
Experimental: as §1, §2
as §3, with “green peach” for “cotton melon”, “(Myzus persicae Sulzer)” for “(Aphis gossypii Glover)”, “12-” for “6-”, “15-day-old radish” for “7-day-old cotton”
as §4, with “described in” for “described for”, “Test A,” for “Test A. The applications were”, “test compound,” for “test compounds,”

[7] = rate 0.5 ppm, read-out: % mortality (obs)
[8] = rate 2 ppm, read-out: % mortality (obs)

Work on CNC(=O)c1cc(C#N)cc(C)c1NC(=O)c1cc(Br)nn1-c1ncccc1Cl [Compound 1, 3-bromo-N-[4-cyano-2-methyl-6-[(methylamino)carbonyl]phenyl]-1-(3-chloro-2-pyridinyl)-1H-pyrazole-5-carboxamide] yielded a mortality at 7 ppm ([1]; Compound 1 7 ppm alone) of 58%, a mortality at 9 ppm ([1]; Compound 1 9 ppm alone) of 69% and a mortality at 12 ppm ([1]; Compound 1 12 ppm alone) of 72%. The mortality at 0.3 ppm ([2]; Compound 1 0.3 ppm alone, read-out: % Mortality (observed)) was 25%, the mortality at […] ([2]; Compound 1 1.3 ppm alone, read-out: % Mortality (observed)) was 55% and the mortality at 6 ppm ([2]; Compound 1 6 ppm alone, read-out: % Mortality (observed)) was 72%. It also gave a mortality at 0.3 ppm ([2]; rate 0.3 ppm, read-out: % mortality (obs)) of 42%, a mortality at […] ([2]; rate 1.5 ppm, read-out: % mortality (obs)) of 50% and a mortality at 6 ppm ([2]; rate 6 ppm, read-out: % mortality (obs)) of 61%. It also gave a mortality at 0.3 ppm ([3]; Compound 1 0.3 ppm) of 0%, a mortality at 2.3 ppm ([3]; Compound 1 2.3 ppm) of 0% and a mortality at 18 ppm ([3]; Compound 1 18 ppm) of 100%. It also gave a mortality at 0.08 ppm ([4]; Compound 1 0.08 ppm, read-out: % Mortality (observed)) of 15%, a mortality at 0.4 ppm ([4]; Compound 1 0.4 ppm, read-out: % Mortality (observed)) of 18% and a mortality at 1.8 ppm ([4]; Compound 1 1.8 ppm, read-out: % Mortality (observed)) of 66%. It also gave a mortality at 0.1 ppm ([4]; rate 0.1 ppm, read-out: % mortality (obs)) of 22%, a mortality at 0.5 ppm [4, 7] of 37% and a mortality at 2 ppm [4, 8] of 76%. The mortality at 0.005 ppm ([5]; Plutella xylostella, in Brassica oleracea, rate 0.005 ppm, read-out: % mortality (obs)) was 86%, the mortality at 0.02 ppm ([5]; Plutella xylostella, in Brassica oleracea, rate 0.02 ppm, read-out: % mortality (obs)) was 87% and the mortality at 0.08 ppm ([5]; Plutella xylostella, in Brassica oleracea, rate 0.08 ppm, read-out: % mortality (obs)) was 94%. For the same compound, the “% mortality” value ([5]; rate 0.02) was 83%, the “% mortality” value ([5]; rate 0.08) was 90% and the mortality at 0.5 ppm ([6]; 0.5 ppm, read-out: % Mortality (observed)) was 14%. The mortality at 1.1 ppm ([6]; 1.1 ppm, read-out: % Mortality (observed)) was 22%, the mortality at 2.1 ppm ([6]; 2.1 ppm, read-out: % Mortality (observed)) was 49% and the mortality at 0.5 ppm [6, 7] was 21%. For the same compound, the mortality at 1 ppm ([6]; rate 1 ppm, read-out: % mortality (obs)) was 35% and the mortality at 2 ppm [6, 8] was 71%.
